Results: article PMC5572576 (The Lancet. Oncology, 2017)
“And” between values parts separate entries of the source, which are not always exact repeats. Identical values can stand only once.

What was measured:
[1] = test system: patients with R/R AML; assay: Phase 1/2 study, antileukemic response; type: in vivo, human; details: for Median overall survival / Median response duration: (95% CI)
[2] = Plasma pharmacokinetics after oral once-daily dosing; type: in vivo, human; details: oral daily dosing 20–450 mg
[3] = FLT3mut+ receiving ≥80mg/d (n=169)

CCc1nc(C(N)=O)c(Nc2ccc(N3CCC(N4CCN(C)CC4)CC3)c(OC)c2)nc1NC1CCOCC1 [gilteritinib]
CRc ([1]; FAS (n=249)): 75 (30% [25, 36]) n (% [95% CI])
ORR ([1]; FAS (n=249)): 100 (40% [34, 47]) n (% [95% CI])
Median overall survival ([1]; FAS (n=249)): 25 (20, 30) weeks
Median response duration ([1]; FAS (n=249)): 17 (14, 29) weeks
CRc ([1]; FLT3WT (n=58)): 5 (9% [3, 19]) n (% [95% CI])
Median overall survival ([1]; FLT3WT (n=58)): 17 (11, 21) weeks
Median response duration ([1]; FLT3WT (n=58)): 12 (3, 17) weeks
CR ([1]; FLT3mut+ all patients (n=191)): 18 (9% [6, 15]) n (% [95% CI])
CRc ([1]; FLT3mut+ all patients (n=191)): 70 (37% [30, 44]) n (% [95% CI])
CRi ([1]; FLT3mut+ all patients (n=191)): 42 (22% [16, 29]) n (% [95% CI])
CRp ([1]; FLT3mut+ all patients (n=191)): 10 (5% [3, 9]) n (% [95% CI])
ORR ([1]; FLT3mut+ all patients (n=191)): 93 (49% [41, 56]) n (% [95% CI])
PR ([1]; FLT3mut+ all patients (n=191)): 23 (12% [8, 18]) n (% [95% CI])
Median overall survival ([1]; FLT3mut+ all patients (n=191)): 30 (23, 33) weeks
Median response duration ([1]; FLT3mut+ all patients (n=191)): 20 weeks and 20 (14, 33) weeks
Transplant rate ([1]; FLT3mut+ receiving ≥80 mg/d): 19%
CR [1, 3]: 18 (11% [6, 16]) n (% [95% CI])
CRi [1, 3]: 41 (24% [18, 31]) n (% [95% CI])
CRp [1, 3]: 10 (6% [3, 11]) n (% [95% CI])
ORR [1, 3]: 88 (52% [44, 60]) n (% [95% CI])
PR [1, 3]: 19 (11% [7, 17]) n (% [95% CI])
Median overall survival [1, 3]: 31 weeks and 31 (24, 59) weeks
Median response duration [1, 3]: 20 weeks and 20 (14, 33) weeks
Median OS ([1]; FLT3mut+ responders who underwent HSCT (n=32)): 47 weeks
Transplant rate ([1]; FLT3mut+ who achieved PR or better): 34%
Transplant rate ([1]; FLT3mut+ with CRc and no prior transplant (n=47)): 47%
Transplant rate ([1]; entire FLT3mut+ population): 19%
Steady state plasma levels reached [2]: 15 treatment Day
